# Laboratory results as given in PubChem BioAssay (NCI).
#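 Method: 48-hour compound exposure of cells in 96-well plates, five concentrations, linear interpolation of endpoints. GI50 is the concentration that inhibits growth by half. TGI denotes the concentration required for complete inhibition of growth.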
# Assays:
# Experiment in all cases: inhibition of tumour cell growth, NCI panel, 48 h
# NCI-H226 lung = system: NCI-H226 lung
# SF-295 CNS = system: SF-295 CNS
# CCRF-CEM leukemia = system: CCRF-CEM leukemia
# K-562 leukemia = system: K-562 leukemia
# HCT-15 colon = system: HCT-15 colon
# MALME-3M melanoma = system: MALME-3M melanoma
# ACHN renal = system: ACHN renal
# IGROV1 ovarian = system: IGROV1 ovarian
# HL-60(TB) leukemia = system: HL-60(TB) leukemia
# HS 578T breast = system: HS 578T breast
# NCI-H460 lung = system: NCI-H460 lung
# OVCAR-5 ovarian = system: OVCAR-5 ovarian
# HCC-2998 colon = system: HCC-2998 colon
# OVCAR-3 ovarian = system: OVCAR-3 ovarian
# OVCAR-8 ovarian = system: OVCAR-8 ovarian
# SF-539 CNS = system: SF-539 CNS
# NCI-H23 lung = system: NCI-H23 lung
# HOP-92 NSCLC = system: HOP-92 NSCLC
# SW-620 colon = system: SW-620 colon
# SK-MEL-5 melanoma = system: SK-MEL-5 melanoma
# MDA-MB-231 breast = system: MDA-MB-231 breast
# MCF7 breast = system: MCF7 breast
# UO-31 renal = system: UO-31 renal
# EKVX NSCLC = system: EKVX NSCLC
# SNB-19 CNS = system: SNB-19 CNS
# RXF 393 renal = system: RXF 393 renal
# HT29 colon = system: HT29 colon
# U251 CNS = system: U251 CNS
# COLO 205 colon = system: COLO 205 colon
# SN12C renal = system: SN12C renal
# UACC-62 melanoma = system: UACC-62 melanoma
# SK-MEL-2 melanoma = system: SK-MEL-2 melanoma
# PC-3 prostate = system: PC-3 prostate
# A549 NSCLC = system: A549 NSCLC
# UACC-257 melanoma = system: UACC-257 melanoma
# NCI-H522 lung = system: NCI-H522 lung
# SR leukemia = system: SR leukemia
# TK-10 renal = system: TK-10 renal
# MOLT-4 leukemia = system: MOLT-4 leukemia
# OVCAR-4 ovarian = system: OVCAR-4 ovarian
# LOX IMVI melanoma = system: LOX IMVI melanoma
# NCI/ADR-RES ovarian = system: NCI/ADR-RES ovarian
# SF-268 CNS = system: SF-268 CNS
# SK-OV-3 ovarian = system: SK-OV-3 ovarian
# SNB-75 CNS = system: SNB-75 CNS
# KM12 colon = system: KM12 colon
# DU-145 prostate = system: DU-145 prostate
# CAKI-1 renal = system: CAKI-1 renal
# MDA-MB-435 = system: MDA-MB-435
# T-47D breast = system: T-47D breast
# SK-MEL-28 melanoma = system: SK-MEL-28 melanoma
# RPMI-8226 leukemia = system: RPMI-8226 leukemia
# A498 renal = system: A498 renal
# M14 melanoma = system: M14 melanoma
# 786-0 renal = system: 786-0 renal
# HOP-62 NSCLC = system: HOP-62 NSCLC
# BT-549 breast = system: BT-549 breast
# HCT-116 colon = system: HCT-116 colon
smiles,measurement,setting,value
COC(=O)C(C)N1C(=O)c2ccccc2I1OC(C)=O (stereo not given),GI50,NCI-H226 lung,> 100 µM
same,TGI,NCI-H226 lung,> 100 µM
same,GI50,SF-295 CNS,> 100 µM
same,TGI,SF-295 CNS,> 100 µM
same,GI50,CCRF-CEM leukemia,18.1 µM
same,TGI,CCRF-CEM leukemia,45.5 µM
same,GI50,K-562 leukemia,41.6 µM
same,TGI,K-562 leukemia,> 100 µM
same,GI50,HCT-15 colon,37.9 µM
same,TGI,HCT-15 colon,> 100 µM
same,GI50,MALME-3M melanoma,16.8 µM
same,TGI,MALME-3M melanoma,54 µM
same,GI50,ACHN renal,30.2 µM
same,TGI,ACHN renal,> 100 µM
same,GI50,IGROV1 ovarian,37.2 µM
same,TGI,IGROV1 ovarian,> 100 µM
same,GI50,HL-60(TB) leukemia,47.2 µM
same,TGI,HL-60(TB) leukemia,> 100 µM
same,GI50,HS 578T breast,> 100 µM
same,TGI,HS 578T breast,> 100 µM
same,GI50,NCI-H460 lung,> 100 µM
same,TGI,NCI-H460 lung,> 100 µM
same,GI50,OVCAR-5 ovarian,> 100 µM
same,TGI,OVCAR-5 ovarian,> 100 µM
same,GI50,HCC-2998 colon,17.4 µM
same,TGI,HCC-2998 colon,38.4 µM
same,GI50,OVCAR-3 ovarian,23.3 µM
same,TGI,OVCAR-3 ovarian,> 100 µM
same,GI50,OVCAR-8 ovarian,> 100 µM
same,TGI,OVCAR-8 ovarian,> 100 µM
same,GI50,SF-539 CNS,31.7 µM
same,TGI,SF-539 CNS,> 100 µM
same,GI50,NCI-H23 lung,40.3 µM
same,TGI,NCI-H23 lung,> 100 µM
same,GI50,HOP-92 NSCLC,> 100 µM
same,TGI,HOP-92 NSCLC,> 100 µM
same,GI50,SW-620 colon,15.5 µM
same,TGI,SW-620 colon,29.5 µM
same,GI50,SK-MEL-5 melanoma,> 100 µM
same,TGI,SK-MEL-5 melanoma,> 100 µM
same,GI50,MDA-MB-231 breast,25.4 µM
same,TGI,MDA-MB-231 breast,> 100 µM
same,GI50,MCF7 breast,30.7 µM
same,TGI,MCF7 breast,> 100 µM
same,GI50,UO-31 renal,54.2 µM
same,TGI,UO-31 renal,> 100 µM
same,GI50,EKVX NSCLC,> 100 µM
same,TGI,EKVX NSCLC,> 100 µM
same,GI50,SNB-19 CNS,> 100 µM
same,TGI,SNB-19 CNS,> 100 µM
same,GI50,RXF 393 renal,32.3 µM
same,TGI,RXF 393 renal,> 100 µM
same,GI50,HT29 colon,26.3 µM
same,TGI,HT29 colon,97.5 µM
same,GI50,U251 CNS,34.8 µM
same,TGI,U251 CNS,> 100 µM
same,GI50,COLO 205 colon,14.4 µM
same,TGI,COLO 205 colon,35 µM
same,GI50,SN12C renal,31.4 µM
same,TGI,SN12C renal,> 100 µM
same,GI50,UACC-62 melanoma,23 µM
same,TGI,UACC-62 melanoma,> 100 µM
same,GI50,SK-MEL-2 melanoma,> 100 µM
same,TGI,SK-MEL-2 melanoma,> 100 µM
same,GI50,PC-3 prostate,> 100 µM
same,TGI,PC-3 prostate,> 100 µM
same,GI50,A549 NSCLC,> 100 µM
same,TGI,A549 NSCLC,> 100 µM
same,GI50,UACC-257 melanoma,> 100 µM
same,TGI,UACC-257 melanoma,> 100 µM
same,GI50,NCI-H522 lung,39.8 µM
same,TGI,NCI-H522 lung,> 100 µM
same,GI50,SR leukemia,19.7 µM
same,TGI,SR leukemia,49.2 µM
same,GI50,TK-10 renal,29.2 µM
same,TGI,TK-10 renal,> 100 µM
same,GI50,MOLT-4 leukemia,22 µM
same,TGI,MOLT-4 leukemia,45.7 µM
same,GI50,OVCAR-4 ovarian,51.3 µM
same,TGI,OVCAR-4 ovarian,> 100 µM
same,GI50,LOX IMVI melanoma,16.1 µM
same,TGI,LOX IMVI melanoma,34.8 µM
same,GI50,NCI/ADR-RES ovarian,> 100 µM
same,TGI,NCI/ADR-RES ovarian,> 100 µM
same,GI50,SF-268 CNS,69 µM
same,TGI,SF-268 CNS,> 100 µM
same,GI50,SK-OV-3 ovarian,> 100 µM
same,TGI,SK-OV-3 ovarian,> 100 µM
same,GI50,SNB-75 CNS,60.8 µM
same,TGI,SNB-75 CNS,> 100 µM
same,GI50,KM12 colon,> 100 µM
same,TGI,KM12 colon,> 100 µM
same,GI50,DU-145 prostate,> 100 µM
same,TGI,DU-145 prostate,> 100 µM
same,GI50,CAKI-1 renal,> 100 µM
same,TGI,CAKI-1 renal,> 100 µM
same,GI50,MDA-MB-435,> 100 µM
same,TGI,MDA-MB-435,> 100 µM
same,GI50,T-47D breast,21 µM
same,TGI,T-47D breast,82.6 µM
same,GI50,SK-MEL-28 melanoma,88 µM
same,TGI,SK-MEL-28 melanoma,> 100 µM
same,GI50,RPMI-8226 leukemia,15.3 µM
same,TGI,RPMI-8226 leukemia,37.6 µM
Cc1cc(S(=O)(=O)Nc2n[nH]c(Nc3ccccc3)n2)c(S)cc1Cl,TGI,NCI-H226 lung,> 10 µM
same,TGI,SF-295 CNS,> 10 µM
same,TGI,CCRF-CEM leukemia,> 10 µM
same,TGI,K-562 leukemia,> 10 µM
same,TGI,HCT-15 colon,> 10 µM
same,TGI,MALME-3M melanoma,> 10 µM
same,TGI,ACHN renal,> 10 µM
same,TGI,IGROV1 ovarian,> 10 µM
same,TGI,HL-60(TB) leukemia,> 10 µM
same,TGI,HS 578T breast,> 10 µM
same,TGI,NCI-H460 lung,> 10 µM
same,TGI,OVCAR-5 ovarian,> 10 µM
same,TGI,HCC-2998 colon,> 10 µM
same,TGI,A498 renal,> 10 µM
same,TGI,OVCAR-3 ovarian,> 10 µM
same,TGI,OVCAR-8 ovarian,> 10 µM
same,TGI,M14 melanoma,> 10 µM
same,TGI,SF-539 CNS,> 10 µM
same,TGI,NCI-H23 lung,> 10 µM
same,TGI,SW-620 colon,> 10 µM
same,TGI,SK-MEL-5 melanoma,> 10 µM
same,TGI,MDA-MB-231 breast,> 10 µM
same,TGI,MCF7 breast,> 10 µM
same,TGI,UO-31 renal,> 10 µM
same,TGI,EKVX NSCLC,> 10 µM
same,TGI,SNB-19 CNS,> 10 µM
same,TGI,786-0 renal,> 10 µM
same,TGI,RXF 393 renal,> 10 µM
same,TGI,HT29 colon,> 10 µM
same,TGI,U251 CNS,> 10 µM
same,TGI,COLO 205 colon,> 10 µM
same,TGI,SN12C renal,> 10 µM
same,TGI,UACC-62 melanoma,> 10 µM
same,TGI,SK-MEL-2 melanoma,> 10 µM
same,TGI,PC-3 prostate,> 10 µM
same,TGI,A549 NSCLC,> 10 µM
same,TGI,UACC-257 melanoma,> 10 µM
same,TGI,NCI-H522 lung,> 10 µM
same,TGI,TK-10 renal,> 10 µM
same,TGI,MOLT-4 leukemia,> 10 µM
same,TGI,OVCAR-4 ovarian,> 10 µM
same,TGI,LOX IMVI melanoma,> 10 µM
same,TGI,HOP-62 NSCLC,> 10 µM
same,TGI,NCI/ADR-RES ovarian,> 10 µM
same,TGI,SF-268 CNS,> 10 µM
same,TGI,SK-OV-3 ovarian,> 10 µM
same,TGI,SNB-75 CNS,> 10 µM
same,TGI,KM12 colon,> 10 µM
same,TGI,DU-145 prostate,> 10 µM
same,TGI,CAKI-1 renal,> 10 µM
same,TGI,MDA-MB-435,> 10 µM
same,TGI,T-47D breast,> 10 µM
same,TGI,BT-549 breast,> 10 µM
same,TGI,SK-MEL-28 melanoma,> 10 µM
same,TGI,RPMI-8226 leukemia,> 10 µM
same,TGI,HCT-116 colon,> 10 µM
